Assay results from the SangsterLogP compilation.

How the values were obtained:
[1] = method code SF-ESR, from DOI: 10.1515/znc-1987-7-832, PMID: 2961152
[2] = method code SF-AS, from DOI: 10.1016/s0021-9673(01)89522-4
[3] = not given; remark: listed apart in the source
[4] = not given; remark: listed apart in the source
[5] = from Courrière, P.; Paubel, J.P.; Nivière, P.; Foussard-Blaspin, O. (1978). Structure-activity study in a series of local anesthetic agents. I. Physicochemical properties and molecular orbital study. …
[6] = method code SF-AS, from DOI: 10.1002/jps.2600830406, PMID: 7913964
[7] = not given; remark: listed apart in the source
[8] = method code SF-HPLC, from DOI: 10.1016/j.apradiso.2007.04.014, PMID: 17574425; conditions: pH 7.4
[9] = method code SF, from DOI: 10.1016/j.bmcl.2009.04.053, PMID: 19409782
[10] = not given; remark: listed apart in the source
[11] = pH 7.4
[12] = not given; remark: listed apart in the source
[13] = method code SF-AS, from DOI: 10.1002/jps.2600720808, PMID: 6620139
[14] = method code SF-HPLC, from DOI: 10.1023/a:1011018730459, PMID: 11451042
[15] = method code SF-RC, from DOI: 10.1016/j.nucmedbio.2016.03.005, PMID: 27179748; conditions: pH 7.4
[16] = method code SF-GLC, from DOI: 10.1023/a:1015803202857, PMID: 2395795
[17] = method code SF-RC, from DOI: 10.1021/jm070025+, PMID: 17411026; conditions: pH 7.4
[18] = not given; remark: listed apart in the source
[19] = method code SF-AS, from DOI: 10.1002/jps.2600610435, PMID: 5014327
[20] = method code SF-AS, from DOI: 10.1021/jm9807104, PMID: 10514282; conditions: pH 7.0
[21] = not given; remark: listed apart in the source
[22] = method code SF-AS, from DOI: 10.1023/a:1018977225919, PMID: 10554109; conditions: pH 3.5
[23] = method code SF-AS, from DOI: 10.1248/cpb.45.1287, PMID: 9301027
[24] = method code SF-AS, from DOI: 10.1021/jf970979g, PMID: 10554305
[25] = method code SF-HPLC, from DOI: 10.1016/0378-5173(89)90313-x; conditions: pH 7.4
[26] = method code SF-AS, from PMID: 8053967; conditions: pH 7.4
[27] = not given; remark: listed apart in the source

## CC1(C)CC(N(CCN(C(=O)N(CCCl)N=O)C2CC(C)(C)N(O)C(C)(C)C2)C(=O)N(CCCl)N=O)CC(C)(C)N1O
[1]
  logP: 2.35

## COc1ccc(-c2oc3c(CC=C(C)C)c(O)cc(O)c3c(=O)c2O)cc1
other
  logP: 6.07

## CC12CCC(O)CC1CCC1C2CCC2(C)C(C3=CC(=O)OC3)CCC12O (stereo unspecified)
[2]
  logP: 2.64

## CCC1C[C@H]2[C@@H]3CCC4=CC(=O)CC[C@@H]4[C@H]3CC[C@]2(C)C1C(=O)CO (stereo partly specified)
[3]
  logP: 4.21

## CCCCCCCC(=O)OC(CNC(C)(C)C)COc1nsnc1N1CCOCC1 (stereo unspecified)
[4]
  logP: 4.66

## Cc1cccc(C)c1N(CCCN(C)C)C(=O)/C=C/c1ccccc1
[5]
  logP: 5.27

## COc1ccc(-c2oc3c(CC=C(C)C)c(O)cc(O)c3c(=O)c2O[C@@H]2O[C@@H](C)[C@H](O)[C@@H](O)[C@H]2O)cc1
other
  logP: 5.11

## COC(=O)[C@@H]1C[C@H]2[C@@H]3CCC4=CC(=O)C=C[C@]4(C)[C@H]3[C@@H](O)C[C@]2(C)[C@H]1C(=O)CO
[6]
  logP: 1.7

## C#C[C@]1(O)CC[C@H]2[C@@H]3CCc4cc(O)ccc4[C@H]3[C@@H](CC)C[C@@]21C
[7]
  logP: 4.28

## O=C(CCl)Nc1cc2c(Nc3cc(Cl)c(Cl)cc3F)ncnc2cc1OCCOCCOCCOCCF
[8]
  logD: 4.64

## O=[N+]([O-])N=C1N(Cc2ccc(Cl)nc2)CCN1Cc1ccc2c(c1)OCCOCCOCCOCCO2
[9]
  logP: -0.82

## C[C@H](CN1CCOCC1)C(C(=O)N1CCCC1)(c1ccccc1)c1ccccc1
[10]
  logP: 3.61

## COc1cc([N+](=O)[O-])cc(C=CC(=O)N2CCC(n3c(=O)[nH]c4ccccc43)CC2)c1OC
[11]
  logD: 3

## COc1ccc(C(C)NCCC(c2ccccc2)c2ccccc2)cc1OC (stereo unspecified)
[12]
  logP: 5.74

## CC(C)(C)NCC(COc1nsnc1N1CCOCC1)OC(=O)c1ccccc1COC(=O)c1ccccc1 (stereo unspecified)
[4]
  logP: 4.37

## CC1(C)C=C(C(=O)NCCCN2C(=O)c3ccccc3C2=O)C(C)(C)N1
[12]
  logP: 1.63

## CCCCC[C@H](O)/C=C/[C@@H]1[C@@H](C/C=C\CCCC(=O)O)[C@@H](O)C[C@H]1O
[13]
  logP: 2.72

## COc1cc(C(=O)OCC2OC(n3cnc4c(NC5CCCC5)ncnc43)C(O)C2O)cc(OC)c1OC (stereo unspecified)
[14]
  logP: 2.27

## Cc1cccc(C)c1N(CCCN(C)C)C(=O)Cc1ccccc1
[5]
  logP: 4.9

## COc1ccc(S(=O)(=O)N(Cc2ccc(OCCOCCOCCOCCOCc3cn(CCF)nn3)cc2)[C@@H](C(=O)NO)C(C)C)cc1
[15]
  logD: 1.24

## O=[N+]([O-])N=C1N(Cc2ccc(Cl)nc2)CCN1Cc1ccc2c(c1)OCCOCCOCCOCCOCCO2
[9]
  logP: -0.55

## OC(CCN1CCCCC1)(c1ccccc1)C1CC2C=CC1C2 (stereo unspecified)
[16]
  logP: 4.25

## CN(C)c1ccc(/C=C/c2cnc(OCCOCCOCCF)c(I)c2)cc1
[17]
  logD: 2.59

## CSc1nc(NCc2cccc(Cl)c2)c2cnn(CC(Cl)c3ccccc3)c2n1 (stereo unspecified)
[18]
  logP: 5.87

## CCCCCCCC(=O)OCC1OC(n2cnc3c(NC4CCCC4)ncnc32)C(O)C1O (stereo unspecified)
[14]
  logP: 3.91

## COc1cc(C(=O)NC2CCCC3CN(C)CCC32)cc(OC)c1OC (stereo unspecified)
[19]
  logP: -0.3

## CC1(C)CC(N(C(=O)N(CCCl)N=O)C2CC(C)(C)N(O)C(C)(C)C2)CC(C)(C)N1O
[1]
  logP: 1.63

## CCOC(=O)C1(c2ccccc2)CCN(CCC(O)c2ccccc2)CC1 (stereo unspecified)
[10]
  logP: 4.04

## COC(=O)C(C)NP(=O)(OCC1C=CC(n2cc(C)c(=O)[nH]c2=O)O1)Oc1ccc(OC(C)=O)cc1 (stereo unspecified)
[20]
  logD: 1.01

## CCN(CC)C(=O)Nc1ccc(OCC(O)CNC(C)(C)C)c(C(C)=O)c1 (stereo unspecified)
[21]
  logP: 1.92

## O=C(C=Cc1cc([N+](=O)[O-])cc2c1OCO2)N1CCC2(CC1)C(=O)NCN2c1ccccc1
[11]
  logD: 3.1

## C[C@H](CCC(=O)O)[C@H]1CC[C@H]2[C@@H]3CC[C@@H]4C[C@H](O)CC[C@]4(C)[C@H]3C[C@H](O)[C@]12C
[22]
  logD: 3.5

## CNc1ccc(/C=C/c2cnc(OCCOCCOCCF)c(I)c2)cc1
[17]
  logD: 2.54

## CC12CCC(O)CC1CCC1C2CCC2(C)C(C3=CC(=O)OC3)C(O)CC12O (stereo unspecified)
[2]
  logP: 1.76

## CCOCCn1c(N2CCCN(CCCCn3cccn3)CC2)nc2ccccc21
[23]
  logP: 3.99

## O=C(CCCN1CCC(O)(c2ccc(Cl)cc2)CC1)c1ccc(F)cc1
[16]
  logP: 3.23

## CCOCCn1c(CN2CCCN(CCCCn3cccn3)CC2)nc2ccccc21
[23]
  logP: 4.61

## O=C(CCl)Nc1cc2c(Nc3cc(Cl)c(Cl)cc3F)ncnc2cc1OCCOCCF
[8]
  logD: 4.3

## COc1ccc(S(=O)(=O)N(Cc2cn(CCOCCOCCOCCF)nn2)C(C(=O)NO)C(C)C)cc1 (stereo unspecified)
[15]
  logD: 0.23

## COC(=O)C(C)NP(=O)(Oc1ccc(C)cc1)OC1C=CC(n2cc(C)c(=O)[nH]c2=O)O1 (stereo unspecified)
[20]
  logD: 1.19

## CC(NC1=CC(=O)C(NC(C)c2ccccc2)=CC1=O)c1ccccc1 (stereo unspecified)
[24]
  logP: 0.98

## CN1C=CCC(C(=O)NCCCOC(=O)CCCc2ccc(N(CCCl)CCCl)cc2)=C1
[25]
  logD: 2.75

## COC(=O)[C@@H]1C[C@H]2[C@@H]3CCC4=CC(=O)C=C[C@]4(C)[C@@]3(F)[C@@H](O)C[C@]2(C)[C@H]1C(=O)CO
[6]
  logP: 1.78

## CCCCCC(O)C=CC1C(O)CC(=O)C1CCCCCCC(=O)O (stereo unspecified)
[22]
  logD: 3.12

## O=C(CCN1CCOCC1)CN1C(=O)CC2(CCc3ccccc32)C1=O (stereo unspecified)
[26]
  logD: 1.26

## O=C(CCN1CCOCC1)CN1C(=O)CC2(CCCc3ccccc32)C1=O (stereo unspecified)
[26]
  logD: 1.63

## CN1C=CCC(C(=O)NCC(OC(=O)CCCc2ccc(N(CCCl)CCCl)cc2)c2ccccc2)=C1 (stereo unspecified)
[25]
  logD: 2.29

## CNc1nc(NCCCN(C)C)c2sc(-c3ccc(C(=O)C(F)(F)F)cc3)cc2n1
[27]
  logP: 4.6

## N#Cc1ccc2c(c1)N(CCCN1CCC(O)CC1)c1ccccc1S2
[21]
  logP: 3.89

## COc1cc(C(=O)OC2CCC[C@@H]3CN(C)CC[C@H]23)cc(OC)c1OC (stereo partly specified)
[19]
  logP: 0.58

## CNc1nc(NCCCN(C)C)c2sc(-c3cccc(C(=O)C(F)(F)F)c3)cc2n1
[27]
  logP: 4.3

## CSc1nc(NCCc2ccccc2)c2cnn(C(Cl)c3ccc(Cl)cc3)c2n1 (stereo unspecified)
[18]
  logP: 6.54

## CCCCC[C@](C)(O)/C=C/C1[C@H](O)C[C@H](O)[C@@H]1C/C=C\CCCC(=O)OC (stereo partly specified)
[13]
  logP: 3.21

## CC(NC1=CC(=O)C(NC(C)C(O)c2ccccc2)=CC1=O)C(O)c1ccccc1 (stereo unspecified)
[24]
  logP: 1.42

## CCC1C[C@H]2[C@@H]3CCC4=CC(=O)CC[C@@H]4[C@H]3CC[C@]2(C)[C@H]1C(=O)CF (stereo partly specified)
[3]
  logP: 4.41

## C#C[C@@]1(O)[C@@H](F)C[C@H]2[C@@H]3CCc4cc(O)ccc4[C@H]3[C@@H](CC)C[C@@]21C
[7]
  logP: 4.12
